Data taken from ChEMBL document CHEMBL2203257 (Bioorg Med Chem Lett, 2012).

Experiments:
[1] = molecular target: Ribosomal protein S6 kinase alpha-1 (Homo sapiens, UniProt Q15418); assay: Inhibition of RPS6KA1
[2] = molecular target: Tyrosine-protein kinase Fes/Fps (Homo sapiens, UniProt P07332); assay: Inhibition of FES
[3] = molecular target: Tyrosine-protein kinase ABL1 (Homo sapiens, UniProt P00519); assay: Inhibition of ABL1
[4] = molecular target: Serine/threonine-protein kinase MARK2 (Homo sapiens, UniProt Q7KZI7); assay: Inhibition of MARK2
[5] = molecular target: Bromodomain-containing protein 2 (Homo sapiens, UniProt P25440); assay: Inhibition of BRD2
[6] = molecular target: Serine/threonine-protein kinase TAO3 (Homo sapiens, UniProt Q9H2K8); assay: Inhibition of TAOK3
Cytochrome P450 2C19 = Cytochrome P450 2C19 (Homo sapiens, UniProt P33261); assay: Inhibition of CYP2C19 at >20 uM; type: ADME
[7] = molecular target: Serine/threonine-protein kinase B-raf (Homo sapiens, UniProt P15056); assay: Inhibition of BRAF
[8] = Cmax in mouse at 10 mg/kg, po BID; type: ADME, organism-based; design: dose 10 mg/kg, route oral; conditions: in vivo
[9] = molecular target: Dual specificity mitogen-activated protein kinase kinase 5 (Homo sapiens, UniProt Q13163); assay: Inhibition of MAP2K5
[10] = molecular target: Fibroblast growth factor receptor 1 (Homo sapiens, UniProt P11362); assay: Inhibition of FGFR1
[11] = molecular target: Membrane-associated tyrosine- and threonine-specific cdc2-inhibitory kinase (Homo sapiens, UniProt Q99640); assay: Inhibition of PKMYT1
[12] = Volume of distribution at steady state […] at 5 mg/kg, po; 1 mg/kg, iv; type: ADME, organism-based; conditions: read-out: Vdss
[13] = molecular target: Tyrosine-protein kinase CSK (Homo sapiens, UniProt P41240); assay: Inhibition of CSK
[14] = molecular target: Mitogen-activated protein kinase 11 (Homo sapiens, UniProt Q15759); assay: Inhibition of MAPK11
[15] = molecular target: Macrophage-stimulating protein receptor (Homo sapiens, UniProt Q04912); assay: Inhibition of MST1R
[16] = molecular target: Epithelial discoidin domain-containing receptor 1 (Homo sapiens, UniProt Q08345); assay: Inhibition of DDR1
[17] = molecular target: Cyclin-dependent kinase 5 (Homo sapiens, UniProt Q00535); assay: Inhibition of CDK5
[18] = molecular target: Tyrosine-protein kinase ABL2 (Homo sapiens, UniProt P42684); assay: Inhibition of ABL2
LIM domain kinase 1 = LIM domain kinase 1 (Homo sapiens, UniProt P53667); assay: Inhibition of LIMK1
[19] = molecular target: Phosphorylase b kinase gamma catalytic chain, liver/testis isoform (Homo sapiens, UniProt P15735); assay: Inhibition of PHKG2
[20] = molecular target: Protein kinase C alpha type (Homo sapiens, UniProt P17252); assay: Inhibition of PRKCA
[21] = molecular target: Mitogen-activated protein kinase 9 (Homo sapiens) (UniProt P45984); assay: Inhibition of MAPK9
TGF-beta receptor type-1 = TGF-beta receptor type-1 (Homo sapiens, UniProt P36897); assay: Inhibition of TGFBR1
[22] = molecular target: Serine/threonine-protein kinase TAO1 (Homo sapiens, UniProt Q7L7X3); assay: Inhibition of TAOK1
[23] = molecular target: Cyclin-G-associated kinase (Homo sapiens, UniProt O14976); assay: Inhibition of GAK
Cytochrome P450 1A2 = Cytochrome P450 1A2 (Homo sapiens, UniProt P05177); assay: Inhibition of CYP1A2 at >20 uM; type: ADME
[24] = molecular target: Interleukin-1 receptor-associated kinase 3 (Homo sapiens, UniProt Q9Y616); assay: Inhibition of IRAK3
[25] = molecular target: Phosphatidylinositol 4,5-bisphosphate 3-kinase catalytic subunit beta isoform (Homo sapiens, UniProt P42338); assay: Inhibition of PIK3Cb
[26] = molecular target: Eukaryotic translation initiation factor 2-alpha kinase 1 (Homo sapiens, UniProt Q9BQI3); assay: Inhibition of EIF2AK1
[27] = molecular target: Tyrosine-protein kinase Fyn (Homo sapiens, UniProt P06241); assay: Inhibition of FYN
Activin receptor type-1 = Activin receptor type-1 (Homo sapiens, UniProt Q04771); assay: Inhibition of ACVR1
[28] = molecular target: Serine/threonine-protein kinase RIO2 (Homo sapiens, UniProt Q9BVS4); assay: Inhibition of RIOK2
[29] = molecular target: Atypical kinase COQ8A, mitochondrial (Homo sapiens, UniProt Q8NI60); assay: Inhibition of CABC1
[30] = molecular target: Serine/threonine-protein kinase D2 (Homo sapiens, UniProt Q9BZL6); assay: Inhibition of PRKD2
[31] = molecular target: Casein kinase II subunit alpha (Homo sapiens, UniProt P68400); assay: Inhibition of CK2a1
Mus musculus [32] = assay: Antiinflammatory activity in mouse air pouch model assessed as effect on IL-8-induced migration of granulocytes into air pouch at 3 mg/kg, po; type: functional
Mus musculus [33] = assay: Antiarthritic activity against collagen-induced arthritis mouse model assessed as mean clinical arthritis score with AUC calculation in at 0.01 mg/kg, po BID for 14 days; type: functional
[34] = molecular target: Mitogen-activated protein kinase kinase kinase 5 (Homo sapiens, UniProt Q99683); assay: Inhibition of MAP3K5
[35] = molecular target: Tyrosine-protein kinase Yes (Homo sapiens, UniProt P07947); assay: Inhibition of YES1
[36] = molecular target: 5'-AMP-activated protein kinase catalytic subunit alpha-1 (Homo sapiens, UniProt Q13131); assay: Inhibition of PRKAA1
[37] = molecular target: Phosphatidylinositol 4-kinase beta (Homo sapiens, UniProt Q9UBF8); assay: Inhibition of PIK4Cb
[38] = molecular target: Protein kinase C beta type (Homo sapiens, UniProt P05771); assay: Inhibition of PRKCB
[39] = molecular target: Proto-oncogene tyrosine-protein kinase receptor Ret (Homo sapiens, UniProt P07949); assay: Inhibition of RET
[40] = Clearance in cynomolgus monkey; type: ADME, organism-based, Macaca fascicularis; conditions: in vivo
[41] = molecular target: Cyclin-dependent kinase 2 (Homo sapiens, UniProt P24941); assay: Inhibition of CDK2
[42] = molecular target: Cyclin-dependent kinase 9 (Homo sapiens, UniProt P50750); assay: Inhibition of CDK9
[43] = molecular target: Dual specificity testis-specific protein kinase 2 (Homo sapiens, UniProt Q96S53); assay: Inhibition of TESK2
[44] = molecular target: Serine/threonine-protein kinase SIK3 (Homo sapiens, UniProt Q9Y2K2); assay: Inhibition of KIAA0999
[45] = molecular target: Inhibitor of nuclear factor kappa-B kinase subunit epsilon (Homo sapiens, UniProt Q14164); assay: Inhibition of IKBKE
[46] = molecular target: BMP-2-inducible protein kinase (Homo sapiens, UniProt Q9NSY1); assay: Inhibition of BMP2K
[47] = AUC in rat […] at 5 mg/kg, po; 1 mg/kg, iv; type: ADME, organism-based
[48] = molecular target: Phosphatidylinositol 4,5-bisphosphate 3-kinase catalytic subunit gamma isoform (Homo sapiens, UniProt P48736); assay: Inhibition of PIK3Cg
Mus musculus [49] = assay: Antiarthritic activity against collagen-induced arthritis mouse model assessed as mean clinical arthritis score with AUC calculation in at 10 mg/kg, po BID for 14 days; type: functional

Chain of Dual specificity mitogen-activated protein kinase kinase 5 (Q13163 whole entry): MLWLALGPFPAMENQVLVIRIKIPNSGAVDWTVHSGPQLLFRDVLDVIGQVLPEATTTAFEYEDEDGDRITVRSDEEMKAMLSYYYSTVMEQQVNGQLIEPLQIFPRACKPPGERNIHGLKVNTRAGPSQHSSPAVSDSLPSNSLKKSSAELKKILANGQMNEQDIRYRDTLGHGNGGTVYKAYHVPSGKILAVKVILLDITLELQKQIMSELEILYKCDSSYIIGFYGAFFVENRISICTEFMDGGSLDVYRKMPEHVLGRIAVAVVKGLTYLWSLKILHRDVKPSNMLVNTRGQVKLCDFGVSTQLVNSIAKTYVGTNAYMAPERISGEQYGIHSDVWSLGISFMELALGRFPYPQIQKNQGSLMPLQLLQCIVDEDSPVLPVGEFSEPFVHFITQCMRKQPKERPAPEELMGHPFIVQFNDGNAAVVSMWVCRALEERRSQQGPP
Chain of Tyrosine-protein kinase ABL2 (P42684 whole entry, the tested form may be a part): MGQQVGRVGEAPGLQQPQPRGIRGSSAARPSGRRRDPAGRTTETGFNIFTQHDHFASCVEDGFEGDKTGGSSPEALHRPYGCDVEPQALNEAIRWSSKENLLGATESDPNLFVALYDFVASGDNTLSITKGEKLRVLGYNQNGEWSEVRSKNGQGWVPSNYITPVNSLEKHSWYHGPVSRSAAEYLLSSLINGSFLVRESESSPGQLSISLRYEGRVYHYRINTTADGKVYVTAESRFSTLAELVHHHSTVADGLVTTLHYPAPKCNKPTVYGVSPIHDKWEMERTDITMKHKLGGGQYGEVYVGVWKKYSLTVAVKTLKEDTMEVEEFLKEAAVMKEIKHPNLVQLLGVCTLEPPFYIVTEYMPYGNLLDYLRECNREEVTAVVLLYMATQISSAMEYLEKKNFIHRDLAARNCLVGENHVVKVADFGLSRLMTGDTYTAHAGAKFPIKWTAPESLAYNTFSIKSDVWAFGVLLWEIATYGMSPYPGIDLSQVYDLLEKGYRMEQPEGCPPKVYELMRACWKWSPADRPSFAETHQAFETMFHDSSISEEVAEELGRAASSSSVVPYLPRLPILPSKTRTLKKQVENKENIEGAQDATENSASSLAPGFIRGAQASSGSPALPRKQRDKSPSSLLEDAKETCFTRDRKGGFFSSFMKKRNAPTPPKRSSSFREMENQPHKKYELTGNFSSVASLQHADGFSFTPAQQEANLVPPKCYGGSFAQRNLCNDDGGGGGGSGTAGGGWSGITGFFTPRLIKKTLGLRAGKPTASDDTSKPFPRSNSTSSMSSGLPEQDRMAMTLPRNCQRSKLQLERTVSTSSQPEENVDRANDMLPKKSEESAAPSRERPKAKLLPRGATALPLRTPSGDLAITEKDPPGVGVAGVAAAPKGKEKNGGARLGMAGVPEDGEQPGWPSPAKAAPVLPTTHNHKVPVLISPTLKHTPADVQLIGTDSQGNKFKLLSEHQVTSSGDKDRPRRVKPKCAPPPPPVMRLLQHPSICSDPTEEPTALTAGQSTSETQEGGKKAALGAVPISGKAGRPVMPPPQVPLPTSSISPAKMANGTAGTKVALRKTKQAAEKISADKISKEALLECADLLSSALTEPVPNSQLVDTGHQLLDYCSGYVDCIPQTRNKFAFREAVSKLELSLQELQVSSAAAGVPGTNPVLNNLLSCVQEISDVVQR
Chain of Epithelial discoidin domain-containing receptor 1 (Q08345 whole entry, the tested form may be a part): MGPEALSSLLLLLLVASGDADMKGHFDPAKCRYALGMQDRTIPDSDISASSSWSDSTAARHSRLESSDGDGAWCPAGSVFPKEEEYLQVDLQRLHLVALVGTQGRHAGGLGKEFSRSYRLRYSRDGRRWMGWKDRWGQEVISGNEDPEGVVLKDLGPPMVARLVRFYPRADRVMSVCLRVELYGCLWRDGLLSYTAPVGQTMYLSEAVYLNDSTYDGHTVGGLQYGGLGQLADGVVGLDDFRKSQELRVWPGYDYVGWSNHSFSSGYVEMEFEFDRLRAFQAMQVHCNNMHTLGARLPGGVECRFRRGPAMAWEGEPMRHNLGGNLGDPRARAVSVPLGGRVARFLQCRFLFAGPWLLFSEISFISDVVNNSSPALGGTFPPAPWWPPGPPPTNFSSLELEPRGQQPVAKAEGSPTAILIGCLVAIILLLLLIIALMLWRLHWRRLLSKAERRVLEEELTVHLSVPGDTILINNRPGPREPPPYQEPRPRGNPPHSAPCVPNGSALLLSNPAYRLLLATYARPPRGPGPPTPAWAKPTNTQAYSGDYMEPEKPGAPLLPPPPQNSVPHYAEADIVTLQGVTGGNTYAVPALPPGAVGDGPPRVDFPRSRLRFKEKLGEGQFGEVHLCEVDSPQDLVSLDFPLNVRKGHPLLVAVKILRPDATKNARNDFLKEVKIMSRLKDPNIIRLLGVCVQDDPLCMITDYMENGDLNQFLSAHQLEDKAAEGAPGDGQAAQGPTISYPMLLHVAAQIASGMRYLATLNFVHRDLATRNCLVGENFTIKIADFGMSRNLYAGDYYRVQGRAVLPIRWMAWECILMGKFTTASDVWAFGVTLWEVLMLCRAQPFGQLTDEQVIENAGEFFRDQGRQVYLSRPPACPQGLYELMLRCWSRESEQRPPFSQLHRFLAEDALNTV
Chain of Serine/threonine-protein kinase TAO1 (Q7L7X3 whole entry): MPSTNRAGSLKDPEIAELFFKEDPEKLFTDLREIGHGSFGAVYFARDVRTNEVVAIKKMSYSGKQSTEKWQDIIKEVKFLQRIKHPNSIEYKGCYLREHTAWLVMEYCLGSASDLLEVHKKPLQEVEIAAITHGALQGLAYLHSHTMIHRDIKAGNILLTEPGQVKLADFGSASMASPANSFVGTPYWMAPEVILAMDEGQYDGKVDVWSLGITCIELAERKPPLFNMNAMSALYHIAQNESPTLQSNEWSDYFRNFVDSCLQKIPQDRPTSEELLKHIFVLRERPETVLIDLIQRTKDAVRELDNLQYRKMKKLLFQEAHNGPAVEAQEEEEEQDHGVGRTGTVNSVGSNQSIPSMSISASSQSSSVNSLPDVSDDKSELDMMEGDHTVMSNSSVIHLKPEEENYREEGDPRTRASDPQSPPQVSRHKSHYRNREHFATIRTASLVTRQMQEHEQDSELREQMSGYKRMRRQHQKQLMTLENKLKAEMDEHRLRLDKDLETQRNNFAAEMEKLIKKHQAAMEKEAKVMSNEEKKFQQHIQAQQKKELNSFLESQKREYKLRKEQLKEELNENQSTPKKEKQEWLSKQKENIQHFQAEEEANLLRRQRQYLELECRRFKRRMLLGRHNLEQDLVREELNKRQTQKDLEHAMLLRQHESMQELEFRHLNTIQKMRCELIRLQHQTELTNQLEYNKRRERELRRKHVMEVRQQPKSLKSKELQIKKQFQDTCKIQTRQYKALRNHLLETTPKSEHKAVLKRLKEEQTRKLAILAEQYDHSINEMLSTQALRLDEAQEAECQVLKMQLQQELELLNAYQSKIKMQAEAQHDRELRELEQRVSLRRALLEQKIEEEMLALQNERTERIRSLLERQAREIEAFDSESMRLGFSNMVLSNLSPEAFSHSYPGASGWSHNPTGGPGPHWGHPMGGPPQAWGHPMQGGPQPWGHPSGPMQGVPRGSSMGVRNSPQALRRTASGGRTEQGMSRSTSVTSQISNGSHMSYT
Chain of Tyrosine-protein kinase Yes (P07947 whole entry): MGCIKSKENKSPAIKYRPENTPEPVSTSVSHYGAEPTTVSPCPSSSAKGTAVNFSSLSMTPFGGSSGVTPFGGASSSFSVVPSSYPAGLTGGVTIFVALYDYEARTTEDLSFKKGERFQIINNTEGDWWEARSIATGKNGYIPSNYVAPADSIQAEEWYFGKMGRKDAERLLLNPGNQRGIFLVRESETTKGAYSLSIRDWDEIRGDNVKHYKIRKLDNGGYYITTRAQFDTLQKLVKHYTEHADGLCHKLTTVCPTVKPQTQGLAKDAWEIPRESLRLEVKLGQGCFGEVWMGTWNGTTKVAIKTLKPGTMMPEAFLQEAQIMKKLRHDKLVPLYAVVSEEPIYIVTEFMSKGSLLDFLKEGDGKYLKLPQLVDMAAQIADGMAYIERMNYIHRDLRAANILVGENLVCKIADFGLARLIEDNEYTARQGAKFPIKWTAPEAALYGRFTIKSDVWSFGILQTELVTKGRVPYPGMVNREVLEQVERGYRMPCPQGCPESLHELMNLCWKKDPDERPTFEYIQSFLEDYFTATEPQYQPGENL
Chain of Tyrosine-protein kinase Fes/Fps (P07332 whole entry): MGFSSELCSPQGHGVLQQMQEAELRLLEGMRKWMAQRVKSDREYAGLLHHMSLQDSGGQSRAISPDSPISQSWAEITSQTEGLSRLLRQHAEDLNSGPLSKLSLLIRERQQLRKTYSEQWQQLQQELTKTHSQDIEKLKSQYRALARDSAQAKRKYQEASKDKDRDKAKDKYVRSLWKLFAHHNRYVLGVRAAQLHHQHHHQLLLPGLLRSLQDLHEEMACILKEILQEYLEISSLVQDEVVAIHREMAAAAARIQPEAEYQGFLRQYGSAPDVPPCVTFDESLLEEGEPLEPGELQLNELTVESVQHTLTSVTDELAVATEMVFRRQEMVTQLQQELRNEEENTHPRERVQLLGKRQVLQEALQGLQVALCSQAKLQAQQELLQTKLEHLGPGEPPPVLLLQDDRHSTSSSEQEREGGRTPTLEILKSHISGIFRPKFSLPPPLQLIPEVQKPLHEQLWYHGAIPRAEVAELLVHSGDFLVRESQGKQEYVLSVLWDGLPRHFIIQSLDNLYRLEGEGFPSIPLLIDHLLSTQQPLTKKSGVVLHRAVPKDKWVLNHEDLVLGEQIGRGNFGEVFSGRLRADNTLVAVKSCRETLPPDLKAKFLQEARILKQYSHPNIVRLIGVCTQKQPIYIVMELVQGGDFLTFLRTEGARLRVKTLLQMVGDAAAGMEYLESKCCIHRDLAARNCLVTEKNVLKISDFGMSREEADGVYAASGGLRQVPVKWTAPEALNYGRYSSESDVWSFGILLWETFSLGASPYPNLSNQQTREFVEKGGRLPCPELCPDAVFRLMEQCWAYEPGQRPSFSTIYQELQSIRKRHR

Structure (SMILES): CC(C)(C)NS(=O)(=O)c1cncc(-c2ccn3nc(N)nc3c2)c1
- IC50 [1]: > 10 µM
- IC50 [2]: > 10 µM
- IC50 [3]: > 10 µM
- IC50 [4]: > 10 µM
- IC50 [5]: > 10 µM
- IC50 [6]: > 10 µM
- inhibition (INH) (Cytochrome P450 2C19): Active
- IC50 [7]: > 10 µM
- Cmax [8]: 10.2 µM
- IC50 [9]: > 10 µM
- IC50 [10]: > 10 µM
- IC50 [11]: > 10 µM
- Vd [12]: 1.3 L/kg
- IC50 [13]: > 10 µM
- IC50 [14]: > 10 µM
- IC50 [15]: > 10 µM
- IC50 [16]: > 10 µM
- IC50 [17]: > 10 µM
- IC50 [18]: > 10 µM
- IC50 (LIM domain kinase 1): > 10 µM
- IC50 [19]: > 10 µM
- IC50 [20]: > 10 µM
- IC50 [21]: > 10 µM
- IC50 (TGF-beta receptor type-1): > 10 µM
- IC50 [22]: > 10 µM
- IC50 [23]: > 10 µM
- inhibition (INH) (Cytochrome P450 1A2): Active
- IC50 [24]: > 10 µM
- IC50 [25]: 0.49 µM
- IC50 [26]: > 10 µM
- IC50 [27]: > 10 µM
- IC50 (Activin receptor type-1): > 10 µM
- IC50 [28]: > 5.89 µM
- IC50 [29]: > 10 µM
- IC50 [30]: > 10 µM
- IC50 [31]: > 10 µM
- Activity (Mus musculus [32]): 74%
- Activity (Mus musculus [33]): 94%
- IC50 [34]: > 10 µM
- IC50 [35]: > 10 µM
- IC50 [36]: > 10 µM
- IC50 [37]: > 10 µM
- IC50 [38]: > 10 µM
- IC50 [39]: > 10 µM
- clearance [40]: 1.6 mL/min/kg
- IC50 [41]: > 10 µM
- IC50 [42]: > 10 µM
- IC50 [43]: > 10 µM
- IC50 [44]: > 10 µM
- IC50 [45]: > 10 µM
- IC50 [46]: > 10 µM
- AUC [47]: 15.3 µM·h
- IC50 [48]: 0.0245 µM
- Activity (Mus musculus [49]): 42%
